Test results reported in patent US8193175B2, “Ruthenium complexes for treating cancers” (Universite de Strasbourg, priority 2004, dated 2012).

What was measured:
[1] = tested on: A172 cells; test: Western blot of p53, p73, p21 and Bax in A172 cells; format: cell-based, human
Experimental: FIG. 3: Detection of p53 and p73 in A172 cells treated with CDR. The A172 cells were treated with the concentrations indicated (2, 5 or 10 μM) with the various compounds and for the periods of time indicated (24 hrs or 6 hrs). The proteins were extracted with a lysis buffer and were separated on 10% SDS-Page gel. After being transferred onto nitrocellulose, the p53 and p73 proteins were detected by Western blot using anti-p53 (pAb1801) and anti-p73 (1/200, Ab2, Oncogene) antibody.
FIG. 4: Detection of p21 and Bax in A172 cells treated with CDR. The A172 cells were treated with the various compounds (10 μM) for 24 hrs. The proteins were extracted with a lysis buffer and were separated on 10% SDS-Page gel. After being transferred onto nitrocellulose, the p21 and Bax proteins were detected by Western blot using anti-p21 (1/200, Oncogene) and anti-Bax (1/2000, Santacruz) antibody.
For the purpose of determining the molecular mechanisms used by the ruthenium derivatives and comparing them with those induced by cisplatinum, the expression of p53, p73 p21 and bax in the A172 and HCT116 lines was analysed.

[2] = tested on: A172 glioblastoma cells; test: Nucleus morphology and caspase 3 activation in A172 cells; format: cell-based, human; conditions: cisplatinum 15 μM, CDR6 15 μM, CDR9 15 μM
Description: FIG. 2: A—The A172 cells were cultivated on glass slides. […] The cells were then fixed in 4% paraformaldehyde, permeabilised with 0.1% NP40 and marked with Hoechst dye (blue) and the anti-p20 antibody (active fragment of caspase 3, in red). The cells were then observed under the fluorescence microscope. B—Graphic representation of the number of cells with an apoptotic, fragmented or condensed nucleus. The bars are an average of two slides from one experiment representative of 3 carried out. C—In parallel, proteic extracts were prepared from cells treated with various drugs (cisplatinum 15 μM; CDR225 μM; CDR615 μM; CDR915 μM) and following denaturation the extracts were deposited on a !0% SDS-Page gel. After migration, the proteins were transferred onto nitrocellulose (Biorad, 0.2 μm) and the p20 fragment of the caspase 3 was detected by Western blot with an anti-p20 antibody (1/1000, R&D System).
The first step towards characterising the anticancerous effects of the compounds derived from ruthenium consists of testing their activity on tumoral lines kept in culture and comparing these effects on lines which have different characteristics as regards resistance to the anticancer treatments. Two lines of human glioblastomas (A172, HS683) and two lines of neuroblastomas (N2A and SH5Y) were used in order to test the cytostatic effects of the compounds according to the invention. Cisplatinum was chosen as the cytotoxic comparison agent. In a first approach, an MTT test was used to measure the activity of a mitochondrial enzyme, and this gives an estimate of the number of cells. Then, the cytotoxic effects of the compounds according to the invention were characterised in greater detail by analysing the morphology of the nucleus and the activation of caspase 3—two markers of cell apoptosis.

[3] = tested on: RDM4; test: DNA fragmentation by marking with propidium iodure on RDM4; format: cell-based, mouse
Description: A second specific marking of apoptosis is the fragmentation of DNA between the nucleosomes. The fragmented DNA is located in the apoptotic bodies in the terminal phase of apoptosis. This DNA is hypodiploid and so less in quantity than that present in normal cells. It can be quantified by flux cytometry after permeabilisation of the cell membranes and marking with PI. The quantity of DNA in a normal cell is 2n in the G0/G1 phase and 4n in the G2 phase. Therefore, the sub-G0 DNA in a quantity of less than 2n has a weaker fluorescence intensity.
This phenomenon tends to diminish after 48 hrs of treatment. On the other hand, when the cells are treated with 45 μM, the formation of hypodiploid particles, visualised by the sub-G0 DNA content, is less than 10% at 24 hrs and exceeds 50% at 48 hrs such as to reach 60% at 72 hrs. […] The quantity of hypodiploid particles in the control cells remains less than 4% over this same period.

[4] = tested on: RDM4 line; test: Proliferation test (UptiBlue) on RDM4 line; format: cell-based, mouse; conditions: 72 hours
Experimental: The products are tested on different cell lines. The cells used are RDM4 from a murine T lymphoma and a MOLT-4 line originating from an acute lymphoblastic leukemia. These cancer lines both express the p53 protein, unlike the HL-60 cells from a human promyelocytary leukemia where, following deletion of its gene, p53 is absent.
All of these cells are cultivated in RPMI 1640-Glutamax, supplemented by 10% calf foetal serum heat inactivated at 56° C. for 30 minutes, 1 mM sodium pyruvate, 1 mM non-essential amino acids and 50 μg/mL gentamycine (Life Technologies, Cergy Pontoise, France). The cultures are kept in an incubator at 37° C. with a moisture saturated atmosphere, with 5% CO2.
This test uses the UptiBlue reagent (Interchim, Montluçon, France), metabolised by the living cells. The cells are incubated on plates with 96 wells with 10^4 cells/well (200 μL) with the product and cultivated for 72 hours. Then, 20 μL UptiBlue are added to each well. After 3 hours incubation, the fluorescence of the samples contained in the plates is measured at 590 nm (excitation at 560 nm), using a Fluorolite 1000 microplate reader (Dynex technologies, Issy-Les-Moulineaux, France).
The potential anti-cancers are first of all selected on the RDM4 line. The effect of the different organo-ruthenium compounds upon the cell viability is firstly determined by a proliferation test as a function of the product concentration. The activity of the compounds derived from Ru is compared to that of cisplatinum. The exposure of the RDM4 cells to these derivatives is translated by a dose-dependent reduction in their proliferation. Therefore, the effect is dependent upon the organic complex which surrounds the Ru nucleus. The inhibition concentration of the growth of 50% of the cells (IC50) is determined for each of the products. […] The ruthenium derivatives showing an excessive IC50 (>50 μM) were eliminated from the biological study.

[5] = tested on: TK6 and NH32 cells; test: Apoptosis by marking with Annexin-V on TK6 and NH32 cells; format: cell-based, human; conditions: 1.5 μM
Experimental: The toxicity of the organoruthenium complex on the TK6 and NH32 lymphoblastoid cells is measured with Annexin-V—a specific marker of precocious apoptosis. This marking is implemented on cells treated with derivative 11 at 1.5 μM after 0 hrs, 24 hrs, 48 hrs, 72 hrs and 96 hrs. […] Beyond 72 hrs, the apoptosis reaches the maximum limit of 90% and forms a plateau. In the control cells, the apoptosis rate remains less than 10% for the whole of the experiment. The increase over time of the externalisation of the anionic phospholipids is similar in the two cell lines, but the TK6 cells enter into apoptosis with a delay of a dozen hours on their p53-deficient variants. The NH32 line reaches the limit formed by the 90% plateau earlier than the TK6 cells. The p53 protein seems to slow down activation of the precocious signs of apoptosis induced by the Ru complexes.

Row | Compound | expression of p21 and Bax ([1]; 10 μM, 24 hours treatment) | p53 proteic levels ([1]; 6 hrs treatment) | p53 proteic levels ([1]; 24 hrs treatment) | proteic levels of the active fragment of caspase 3 (Western blot) [2] | cell cycle distribution (propidium iodure) ([3]; 15 μM, first two days) | hypodiploid particles (sub-G0 DNA content) ([3]; 45 μM, 72 hrs) [%] | IC50 [4] [µM] | externalisation of the phosphatidylserines (Annexin-V) ([5]; 48 hrs) | externalisation of the phosphatidylserines (Annexin-V) ([5]; 72 hrs of continuous treatment) [%]
1 | N.N.[Cl][Pt][Cl] [Cisplatinum, reference compound] | induces the expression of p21 and Bax | induce p53 | induces the p53 proteic levels | increasing the proteic levels of the active fragment of caspase 3 | – | – | – | – | –
2 | [Ru(C6H4-2-C5H4N)(phen)(NCMe)2]PF6 [Compound 11] | – | – | – | – | accumulation in the G0/G1 phase | 60 | 11 | exceeds 50% | 90
